The text below walks through data of PubChem BioAssay (NCI).

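All cell lines were grown in 96-well plates and treated with compound for 48 hours. TGI is the concentration that stops growth completely.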 Bounds are passed on as bounds.

What all share (assay): growth of human tumour cells (NCI), 48 h
Assay [1] concerns NCI-H460 lung.
Assay [2] deals with NCI-H23 lung.
Assay [3] deals with EKVX NSCLC.
In assay [4] the test system is SNB-75 CNS.
In assay [5] the test system is OVCAR-8 ovarian.
The subject of assay [6] is A498 renal.
Assay [7] concerns MDA-MB-435.
For assay [8], the system named is HL-60(TB) leukemia.
Assay [9] concerns MDA-MB-231 breast.
The test system of assay [10] is SK-MEL-2 melanoma.
The subject of assay [11] is SN12C renal.
Assay [12] has as its system UO-31 renal.
In assay [13] the test system is OVCAR-3 ovarian.
Assay [14] has as its system RPMI-8226 leukemia.
The test system of assay [15] is MALME-3M melanoma.
Assay [16] relates to SR leukemia.

Take `CNc1nnc(CCCCCCCCc2nnc(NC)o2)o1`: the TGI in [1], in assay [2], in [3], in assay [4], in assay [5] and in assay [6] was over 100 µM each time. Moreover, the TGI in [7], in assay [8], in [9], in assay [10], in [11] and in [12] was over 100 µM throughout. This compound also yielded a TGI in assay [13] of 44.9 µM.

Take `Cc1cc2[nH]c3c(C#N)c(-c4ccccc4)c(N=Nc4ccc(F)cc4)c(=O)n3c2cc1C`: the TGI in assay [1], in assay [2], in assay [3], in assay [4], in assay [6] and in assay [7] was over 100 µM throughout. In addition, the TGI in assay [9] was over 100 µM; in [10], over 100 µM; in assay [11] it was over 100 µM; in [12] it was over 100 µM; in assay [14], over 100 µM; in assay [13] it was 39.8 µM.

Take `O=C(O)CCC(=O)OCN1C(=O)C2C3C=CC(C2C1=O)C1C2C(=O)N(COC(=O)CCC(=O)O)C(=O)C2C31` (stereo not drawn): the TGI is over 54.5 µM in assay [1]; over 100 µM in [15]; over 100 µM in assay [2]; over 100 µM in assay [3]; over 100 µM in [4]; over 100 µM in assay [5]. For the same compound, the TGI was over 100 µM in [6]; 52.4 µM in [16]; 46.7 µM in assay [8]; over 100 µM in assay [10]; over 100 µM in assay [11]; over 100 µM in [12]. The TGI in [14] is 52.5 µM; in assay [13], over 100 µM.

Take `CCc1cccc2c3c([nH]c12)-c1ccccc1NC(=O)C3`: the TGI in [1], in assay [2], in assay [3], in [4], in assay [5] and in assay [6] was over 100 µM throughout. The TGI in assay [7], in assay [8], in [9], in assay [10], in assay [11] and in assay [12] was over 100 µM each time. The TGI in [14] and in assay [13] was over 100 µM in each case.

For the compound `Cc1cc(-n2nnc(C(=O)O)c2-c2ccccc2)c2ccc(Cl)cc2n1`, the TGI in assay [1], in assay [15], in assay [2], in [3], in [4] and in [5] was over 100 µM throughout. Besides, the TGI in assay [6], in [7], in assay [8], in [9], in assay [10] and in assay [11] was over 100 µM throughout. The TGI in assay [12] and in [13] was over 100 µM in each case.

Take `O=C(COc1ccc(OCC(=O)N2C(=O)CC(=O)N(c3ccc(Cl)cc3)C2=S)cc1)N1C(=O)CC(=O)N(c2ccc(Cl)cc2)C1=S`: the TGI was over 100 µM in assay [1]; 93.5 µM in [15]; over 100 µM in assay [2]; over 100 µM in assay [3]; over 100 µM in [4]; over 100 µM in [6]. In addition, the TGI in [7], in [9], in assay [10], in assay [11], in [12] and in [14] was over 100 µM in each case.

As to `COc1ccccc1OCC(COC(=O)Nc1ccccc1)OC(=O)Nc1ccccc1` (stereo not drawn), the TGI was over 100 µM in [1]; over 100 µM in [15]; over 100 µM in [2]; over 100 µM in [3]; 45.6 µM in [4]; over 100 µM in assay [5]. The TGI in assay [6] was over 100 µM; in assay [8], over 100 µM; in assay [10], 67.6 µM; in assay [11] it was over 100 µM; in assay [12] it was over 100 µM; in assay [13] it was over 100 µM.

In the case of `NCCCN(CCCCN(CCCN)C(=O)OCc1ccccc1)C(=O)OCc1ccccc1`, the TGI in [1], in assay [2], in [3], in [4], in assay [5] and in assay [6] was over 100 µM each time. Besides, the TGI was over 100 µM in assay [7]; over 100 µM in [8]; 93.7 µM in assay [9]; over 100 µM in [10]; over 100 µM in assay [11]; over 100 µM in assay [12]. Besides, the TGI in [14] and in assay [13] was over 100 µM each time.

As for `CC1CC/C(=C\c2ccc(F)cc2)C2=C1C(c1ccc(F)cc1)N1C(=O)CSC1=N2` (stereo not drawn), the TGI in [1], in assay [15], in [2], in assay [3], in assay [5] and in assay [6] was over 100 µM in each case. The TGI in [7], in assay [8], in [9], in [10], in [11] and in assay [12] was over 100 µM throughout. The TGI in [14] and in [13] was over 100 µM in each case.

In the case of `CC(C(=O)OCc1ccccc1)N(Cc1ccccc1)Cc1ccccc1` (stereo not drawn), the TGI in assay [1], in [15], in [2], in assay [3], in assay [4] and in [5] was over 100 µM each time. Also, the TGI in assay [6] was over 100 µM; in assay [16], over 100 µM; in [8], 79.2 µM; in [10], over 100 µM; in assay [11], over 100 µM; in assay [12], over 100 µM. For the same compound, the TGI in assay [14] and in [13] was over 100 µM throughout.
